Assays:
Type in all cases: biochemical
JAK3 = molecular target: T1, JAK3 (Homo sapiens, UniProt P52333); assay: In vitro enzyme assay (cell-free HTRF kinase assay), JAK3; conditions: catalytic domain, His-tag; ATP 3 μM, SRCtide 100 nM, reaction 30 min
T1 construct: All enzymes only contain the catalytic domain; His (N); purchased Carna Bioscience, Inc; host or cells: baculovirus expression system
In short: (§1)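 Catalytic-domain human kinases (baculovirus-expressed; JAK1 GST-tagged aa 850-1154, JAK2/JAK3 His-tagged) reacted with biotin-SRCtide and ATP in HEPES pH 7.5, MgCl2, DTT buffer, 1% DMSO, at room temperature. EDTA stop (10 mM final), then ULight-streptavidin/Eu-anti-phosphotyrosine overnight at 4 °C; HTRF 665/615 ratio gave IC50.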

JAK1 = molecular target: T2, JAK1 (Homo sapiens, UniProt P23458); assay: In vitro enzyme assay (cell-free HTRF kinase assay), JAK1; conditions: catalytic domain aa 850-1154, GST-tag; ATP 60 μM, SRCtide 400 nM, reaction 120 min
T2 construct: JAK1 (aa 850-1154) and TYK2 (aa 871-1187) are expressed with an N-terminally fused GST-tag; GST (N); purchased Carna Bioscience, Inc; host or cells: baculovirus expression system
In short: as §1

JAK2 = molecular target: T3, JAK2 (Homo sapiens, UniProt O60674); assay: In vitro enzyme assay (cell-free HTRF kinase assay), JAK2; conditions: catalytic domain, His-tag; ATP 10 μM, SRCtide 25 nM, reaction 30 min
T3 construct: All enzymes only contain the catalytic domain; His (N); purchased Carna Bioscience, Inc; host or cells: baculovirus expression system
In short: as §1

T2 sequence (P23458 850-1154): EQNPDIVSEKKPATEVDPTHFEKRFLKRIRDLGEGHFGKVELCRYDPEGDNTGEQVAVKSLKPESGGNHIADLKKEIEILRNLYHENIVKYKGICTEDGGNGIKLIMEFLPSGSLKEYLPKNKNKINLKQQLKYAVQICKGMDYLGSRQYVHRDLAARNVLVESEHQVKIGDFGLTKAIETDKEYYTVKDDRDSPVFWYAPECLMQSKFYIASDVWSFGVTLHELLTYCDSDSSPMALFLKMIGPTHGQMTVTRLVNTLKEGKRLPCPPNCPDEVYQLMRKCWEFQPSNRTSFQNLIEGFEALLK
T3 sequence (O60674 849-1124 limits assumed): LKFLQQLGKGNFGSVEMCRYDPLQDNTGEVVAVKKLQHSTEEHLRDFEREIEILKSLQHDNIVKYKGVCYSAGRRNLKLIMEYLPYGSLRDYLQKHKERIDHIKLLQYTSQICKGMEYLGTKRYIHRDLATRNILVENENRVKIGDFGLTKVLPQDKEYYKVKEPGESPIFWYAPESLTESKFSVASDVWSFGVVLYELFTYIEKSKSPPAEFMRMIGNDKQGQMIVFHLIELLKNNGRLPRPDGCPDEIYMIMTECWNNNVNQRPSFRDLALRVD
T1 sequence (P52333 822-1111 limits assumed): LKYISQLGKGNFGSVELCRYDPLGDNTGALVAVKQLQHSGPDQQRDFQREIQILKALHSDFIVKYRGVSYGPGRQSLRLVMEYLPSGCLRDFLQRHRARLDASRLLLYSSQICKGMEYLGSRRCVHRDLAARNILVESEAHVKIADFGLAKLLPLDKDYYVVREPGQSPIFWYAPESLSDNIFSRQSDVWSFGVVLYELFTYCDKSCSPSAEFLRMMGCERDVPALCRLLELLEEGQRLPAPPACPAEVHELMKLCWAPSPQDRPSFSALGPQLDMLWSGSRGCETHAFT

| IC50 (JAK3) | IC50 (JAK1) | IC50 (JAK2) | SMILES |
| --- | --- | --- | --- |
| < 500 nM | < 500 nM | < 1000 nM | O=C(Nc1nccc2c1ccn2C(=O)c1c(Cl)cc(CNCCCN2CCOCC2)cc1Cl)C1CC1 [Compound No. 166, N-{1-[2,6-Dichloro-4-({[3-(morpholin-4-yl)propyl]amino}methyl)benzoyl]-1H-pyrrolo[3,2-c]pyridin-4-yl}cyclopropanecarboxamide] |
| < 500 nM | < 500 nM | < 500 nM | O=C(Nc1nccc2c1ccn2C(=O)c1c(Cl)cc(CNCCCO)cc1Cl)C1CC1 [Compound No. 167, N-[1-(2,6-Dichloro-4-{[(3-hydroxypropyl)amino]methyl}benzoyl)-1H-pyrrolo[3,2-c]pyridin-4-yl]cyclopropanecarboxamide] |
| < 500 nM | < 1000 nM | < 1000 nM | O=C(NCCn1cccc1)c1cc(Cl)c(C(=O)n2ccc3c(NC(=O)C4CC4)nccc32)c(Cl)c1 [Compound No. 168, 3,5-Dichloro-4-({4-[(cyclopropylcarbonyl)amino]-1H-pyrrolo[3,2-c]pyridin-1-yl}carbonyl)-N-[2-(1H-pyrrol-1-yl)ethyl]benzamide] |
| < 1000 nM | < 1000 nM | < 500 nM | O=C(NCCc1cccnc1)c1cc(Cl)c(C(=O)n2ccc3c(NC(=O)C4CC4)nccc32)c(Cl)c1 [Compound No. 169, 3,5-Dichloro-4-({4-[(cyclopropylcarbonyl)amino]-1H-pyrrolo[3,2-c]pyridin-1-yl}carbonyl)-N-[2-(pyridin-3-yl)ethyl]benzamide] |
| < 1000 nM | < 500 nM | < 1000 nM | O=C(NCC1CC1)c1cc(Cl)c(C(=O)n2ccc3c(NC(=O)C4CC4)nccc32)c(Cl)c1 [Compound No. 170, 3,5-Dichloro-4-({4-[(cyclopropylcarbonyl)amino]-1H-pyrrolo[3,2-c]pyridin-1-yl}carbonyl)-N-(cyclopropylmethyl)benzamide] |
| < 100 nM | < 500 nM | < 100 nM | O=C(NCC1CCCNC1)c1cc(Cl)c(C(=O)n2ccc3c(NC(=O)C4CC4)nccc32)c(Cl)c1 (stereo not drawn) [Compound No. 171, 3,5-Dichloro-4-({4-[(cyclopropylcarbonyl)amino]-1H-pyrrolo[3,2-c]pyridin-1-yl}carbonyl)-N-(piperidin-3-ylmethyl)benzamide] |
